Columns and labels:
[1] = system: collagen-stimulated blood platelets; experiment: Inhibition of collagen-induced thrombocytopenia in anesthetized guinea pigs; format: in vivo, guinea pig; details: for % Thrombocytopenia Inhibition: average ± SEM
Text: Reversible thrombocytopenias are produced on anesthetized guinea pigs by injection of collagen ([…] i.v.). The cause of these thrombocytopenias is an aggregate formation of the collagen-stimulated blood platelets and the embolization of these platelet aggregates in the lungs, where they then lodge and thus cause the observed drops of the platelet count in the blood (thrombocytopenias).

[2] = system: thrombus formation in carotid arteries; experiment: Thrombus formation in carotid arteries previously traumatized by pressure + cold (thrombus hemoglobin content); format: in vivo, guinea pig
Protocol: A 2-cm-long piece of the external left carotid artery on an anesthetized guinea pig is carefully exposed and drawn over a small metal plate. Then the vascular wall is weighted down over a length of 1 cm for 3 minutes with a steel stamp weighing 200 g, cooled to -15° C. In this way, a massive local vascular trauma is caused on a large artery and a red thrombus develops on the traumatized site. Three hours after the trauma the traumatized segment and an equally long piece of the contralateral artery are removed, asked and put in hemoglobin test reagent. The hemoglobin contents of the two segments are determined 24 hours later. The net hemoglobin content of the red thrombus as the measurement of the thrombus size is calculated from the difference of these hemoglobin contents.

[3] = system: occluding platelet thrombi on mesenteric arterioles; experiment: Thrombogenic ADP concentration for occluding platelet thrombi on previously traumatized mesenteric arterioles; format: in vivo, guinea pig; details: for Thrombogenic ADP Concentration, Increase: N 5, average
Protocol: A mesenteric loop is placed on an anesthetized guinea pig and is superfused with a moderately heated solution of common salt. Under intravital microscopic control the vascular wall of a mesenteric arteriole (020-50 m) is traumatized by a series of electric pulses. By subsequent local application of increasing concentrations of ADP (adenosine diphosphate) solution a thrombogenic ADP concentration is determined, at which an occluding platelet thrombus forms on the pretraumatized site of the arteriole. This thrombogenic ADP concentration produces vascular-specific and reproducible thrombi in the respective arteriole.

[4] = system: PAI-1 release of human platelets; experiment: Inhibition of PAI-1 release from collagen-stimulated human platelets (ELISA); format: cell-based; details: Platelet, N = 6, % of control
Protocol: (§1) Human platelet-rich plasma (PRP) is incubated in an aggregometer at 37° C. and mixed with […] of collagen to cause aggregation. […] The course of the aggregation is recorded in the aggregometer. 10 minutes after collagen addition, the samples are centrifuged at 3000 rpm and the supernatant is tested with an enzyme linked immunosorbent assay (ELISA) for its content of plasminogen activator inhibitor-1 (PAI-1) and with a radioimmunoassay (RIA) for the content of platelet-derived growth factor (PDGF).

human platelets = experiment: Inhibition of collagen-stimulated aggregation of human platelets in platelet-rich plasma (aggregometer); format: cell-based
Protocol: as §1

[5] = system: PDGF release of human platelets; experiment: Inhibition of PDGF release from collagen-stimulated human platelets (RIA); format: cell-based; details: Platelet, N = 6, % of control
Protocol: as §1

Compound: CC(=O)Oc1ccccc1C(=O)O [ASA, acetylsalicylic acid]
- thrombocytopenia inhibition, in words ([1]; ASA 0.5 mg/kg i.v.): weakly inhibiting
- % Thrombocytopenia Inhibition ([1]; ASA 0.5 mg/kg i.v., N 8, p less than 0.05 vs control): 17 ± 3%
- effect on thrombus formation in the carotid artery, in words ([2]; ASA 5 mg/kg i.v.): no significant effect
- Thrombus Hb content, Median ([2]; ASA 5 mg/kg, N 10, Q 25/Q 75 -0.1/13.8, n.s., control 8.6): 3.4 µmol
- change of thrombogenic ADP concentration, in words ([3]; ASA 10 mg/kg i.v.): does not change the thrombogenic ADP concentration
- Thrombogenic ADP Concentration, Increase ([3]; ASA 10 mg/kg, SEM ±0.13, n.s.): 0.06

Compound: CCC#CC[C@H](C)[C@H](O)C#C[C@@H]1[C@H]2C/C(=C/COCC(=O)O)C[C@H]2C[C@H]1O [Cicaprost]
- thrombocytopenia inhibition, in words ([1]; Cicaprost 1 ng/kg/min i.v., separately): ineffective
- % Thrombocytopenia Inhibition ([1]; Cicaprost 1 ng/kg/min i.v., N 6, n.s.): 8 ± 5%
- % Thrombocytopenia Inhibition ([1]; Cicaprost 3 ng/kg/min, N 6, p less than 0.05 vs control): 36 ± 4%
- higher dose of Cicaprost alone needed for the effect of the combination ([1]; vs 1 ng/kg/min i.v. in combination with ASA 0.5 mg/kg): three-fold higher dose
- inhibition at 0.1 µM ([4]; Cicaprost 10^-7 M): 80 ± 5%
- inhibition at 0.01 µM ([4]; Cicaprost 10^-8 M): 72 ± 3%
- inhibition at 0.001 µM ([4]; Cicaprost 10^-9 M): 0%
- inhibition at 0.0001 µM ([4]; Cicaprost 10^-10 M): 0%
- platelet aggregation inhibition, in words (human platelets; Cicaprost 10^-10 or 10^-9 M, separately): ineffective
- inhibition at 0.1 µM (human platelets; Homo sapiens, Platelet, Cicaprost 10^-7 M, N = 6, % of control): 95 ± 3%
- inhibition at 0.01 µM (human platelets; Homo sapiens, Platelet, Cicaprost 10^-8 M, N = 6, % of control): 95 ± 4%
- inhibition at 0.001 µM (human platelets; Homo sapiens, Platelet, Cicaprost 10^-9 M, N = 6, % of control): 0%
- inhibition at 0.0001 µM (human platelets; Homo sapiens, Platelet, Cicaprost 10^-10 M, N = 6, % of control): 4 ± 3%
- Thrombus Hb content, Median ([2]; Cicaprost 0.3 ng/kg/min, N 10, Q 25/Q 75 8.0/25.0, n.s., control 8.6): 12.4 µmol
- Thrombus Hb content, Median ([2]; Cicaprost 1.0 ng/kg/min, N 10, Q 25/Q 75 0.2/5.8, significant vs control 8.6): 1.9 µmol
- Thrombus Hb content, Median ([2]; Cicaprost 3.0 ng/kg/min, N 11, Q 25/Q 75 -0.4/0.7, significant vs control 8.6): 0 µmol
- effect on thrombus formation in the carotid artery, in words ([2]; dosage printed C.3 ng/kg/min i.v.): significantly effective
- inhibition at 0.1 µM ([5]; Cicaprost 10^-7 M): 81 ± 1%
- inhibition at 0.01 µM ([5]; Cicaprost 10^-8 M): 81 ± 3%
- inhibition at 0.001 µM ([5]; Cicaprost 10^-9 M): 3 ± 3%
- inhibition at 0.0001 µM ([5]; Cicaprost 10^-10 M): 1 ± 2%
- higher dosage of Cicaprost alone needed for the antithrombotic action of the combination ([3]; 100 ng/kg/min i.v. alone vs 10 ng/kg/min in combination): 10 fold
- change of thrombogenic ADP concentration, in words ([3]; Cicaprost 10 ng/kg/min i.v.): not significantly effective
- Thrombogenic ADP Concentration, Increase ([3]; Cicaprost 10 ng/kg/min, SEM ±0.39, n.s.): 0.36
- Thrombogenic ADP Concentration, Increase ([3]; Cicaprost 30 ng/kg/min, SEM ±0.20, p less than 0.05 vs control): 1.02
- increase of the thrombogenic ADP concentration ([3]; Cicaprost 100 ng/kg/min i.v., N=5): 1.32±0.2 log M
- Thrombogenic ADP Concentration, Increase ([3]; Cicaprost 100 ng/kg/min, SEM ±0.20, p less than 0.05 vs control): 1.32

From patent US5093325A, “Combination preparation having antithrombotic action” (priority 1989, dated 1992)
